Measured values: patent US20030186424A1, “Reagents and methods for identifying and modulating expression of genes regulated by CDK inhibitors” (priority 2001, published 2003)

B1: Bax TATA box core promoter probe (dsDNA)
DNA 1: ACTCAGTTTTTAGTCATCTATAACGTCCTGCCTGGAAGCATGCTATTTTGGGCCTCTGAGCTT
DNA 2: AAGCTCAGAGGCCCAAAATAGCATGCTTCCAGGCAGGACGTTATAGATGACTAAAAACTGAGT

What was measured:
[1] = system: CRD1 domain of p300; assay: CRD1 dependent stimulation of transcription (Gal4 p300 CRD1+ luciferase reporter); format: cell-based, human; details: treatment of cells with the compound; data not shown
Description: Calcium phosphate transfections of U-2 OS cells were performed substantially as disclosed in Webster & Perkins (1999, Mol. Cell. Biol. 19: 3485-3495). Briefly, transfections were performed in 6 cm dishes using 2 μg of reporter plasmid, 1.6 μg of RSV p21 or RSV ADH control plasmid and 5 ng of Gal4 expression plasmid (except where indicated in the figure legend). Cells were harvested approximately 40 hours after transfection. Lysates were prepared using passive lysis buffer (Promega) and luciferase assays were performed according to manufacturer's instructions (Promega). All experiments were performed separately, a minimum of three times before calculating means and standard errors as shown in the Figures. Relative luciferase levels were calculated by referring to the level of activity seen with the Gal4 DNA-binding domain (amino acids 1-147) not fused to a heterologous activator, except when specifically referred to.
Wild type p21 and the two mutants were cotransfected with Gal4 p300^CRD+ (192-1044) and Gal4 E1B luciferase into U-2 OS cells. Both mutants stimulated transcriptional activity to the same extent as the wild type protein (FIG. 8B), consistent with a Cyclin/CDK independent role for p21 regulation of CRD1. […]

[2] = molecular target: TBP + TFIIB complex (UniProt P20226;Q00403 P20226:1-339,Q00403:1-316); assay: EMSA; no complex seen; 30 C, 4 mM MgCl2, 55 mM KCl; exact probe span not stated; details: tags: gift from Stefan Roberts, University of Manchester; label: 32P
Text: The sequence of the TATA box and surrounding sequences was known in the art to influence binding of basal transcription factors (Lieberman et al., 1997, Mol. Cell. Biol. 17: 6624-6632). Since the Bax TATA sequence differs considerably from AdML, these constructs were used to determine whether the observed structural differences would be associated with differential binding of the core transcription factors TBP (TATA binding protein) and TFIIB. In these experiments, purified recombinant TBP and TFIIB were therefore incubated with ³²P labeled probes containing the AdML and Bax TATA boxes and analyzed by electrophoretic mobility shift assay (EMSA), performed as follows. ³²P labeled probe DNA was incubated for 1 hr at 30° C. with ˜1 ng purified recombinant TBP, ˜2 ng purified recombinant TFIIB (both proteins gifts from Dr Stefan Roberts, University of Manchester), 5 μg BSA, 250 ng poly(dG.dC) competitor and 12 μL buffer (having a formula of 10 mM Hepes pH7.9, 0.2 mM EDTA, 55 mM KCl, 4 mM MgCl₂, 5 mM ammonium sulphate, 8% v/v glycerol, 2% v/v polyethylene glycol, 5 mM β-mercaptoethanol, and 0.2 mM PMSF). Samples were then resolved using a 4.8% acrylamide gel (in 0.5×TB buffer). The gel was then dried and exposed to film.

TBP + TFIIB complex, sequence (P20226 whole entry, chain 1 of 2): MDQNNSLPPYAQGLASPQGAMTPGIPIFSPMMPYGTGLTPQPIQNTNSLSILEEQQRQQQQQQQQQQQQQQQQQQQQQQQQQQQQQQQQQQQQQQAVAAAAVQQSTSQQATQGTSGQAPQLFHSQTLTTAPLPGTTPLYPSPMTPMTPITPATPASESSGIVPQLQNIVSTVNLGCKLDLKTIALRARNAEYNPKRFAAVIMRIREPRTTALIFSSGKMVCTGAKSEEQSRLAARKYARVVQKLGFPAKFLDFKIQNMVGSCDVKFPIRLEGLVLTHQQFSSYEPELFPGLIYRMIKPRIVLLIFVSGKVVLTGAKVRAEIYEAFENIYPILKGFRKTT
TBP + TFIIB complex, sequence (Q00403 whole entry, chain 2 of 2): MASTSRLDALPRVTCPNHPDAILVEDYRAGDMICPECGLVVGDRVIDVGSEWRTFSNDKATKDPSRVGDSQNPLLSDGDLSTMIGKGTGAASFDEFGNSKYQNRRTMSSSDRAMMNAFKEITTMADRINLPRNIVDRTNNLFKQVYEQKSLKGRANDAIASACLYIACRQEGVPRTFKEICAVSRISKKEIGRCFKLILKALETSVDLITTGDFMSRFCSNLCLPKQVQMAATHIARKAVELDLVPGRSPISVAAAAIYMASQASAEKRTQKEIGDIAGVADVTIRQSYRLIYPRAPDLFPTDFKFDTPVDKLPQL

| Molecule | CRD1 dependent stimulation of transcription [1] | binding result [2] |
| --- | --- | --- |
| NC(Cn1ccc(=O)c(O)c1)C(=O)O (stereo not drawn) [mimosine] | does not result in CRD1 dependent stimulation of transcription | – |
| CC[C@H](CO)Nc1nc(NCc2ccccc2)c2ncn(C(C)C)c2n1 [roscovitine] | does not result in CRD1 dependent stimulation of transcription | – |
| B1 | – | no binding |
